Square brackets hold non-standard residues; d marks the D form. Peptide text beside a SMILES is read from it. * marks the point of attachment. Sta = CC(C)C[C@H](N)[C@@H](O)CC(=O)O; Isovaleryl = CC(C)CC(=O)*
Legend:
[1] = tested on: thermophilic Bacillus strain HS08 protease; conditions: cited from earlier work
Rand protease [2] = assay: Effect of metal ions on protease activity; type: biochemical, Bacillus subtilis isolate Rand; conditions: 5 mM metal ion, 37° C., 30 min; control no ions
Experimental: Purified Rand protease was treated with 5 mM of various metal ions at 37° C. for […].
The effect of metal ions on protease activity was determined by incubating the protease with different metal ions at 5 mM final concentration. The metal ions used were K^+, Na^+, Mg^2+, Ca^2+, Mg^2+, Fe^2+, Co^2+, Cu^2+, Zn^2+ and […]. The samples were incubated at 37° C. for 30 min. […] The control contained no ions.

Rand protease [3] = assay: Effect of inhibitors on protease activity; type: biochemical, Bacillus subtilis isolate Rand; conditions: 5 mM inhibitor, 30 min at 37° C., relative to control
Experimental: Purified Rand protease was incubated with 5 mM of different inhibitors at 37° C. for 30 min.
All the inhibitors were used at 5 mM final concentration.

Rand protease [4] = assay: Effect of organic solvents on stability of crude Rand protease (cell-free supernatant); type: biochemical, Bacillus subtilis isolate Rand; conditions: 25% (v/v) solvent, 55° C., 150 rpm, 30 min, control distilled water
Experimental: 1. […] Three ml aliquots of a cell-free supernatant culture were incubated with 1 ml of different organic solvents at 55° C. with shaking at 150 rpm for 30 min.
Each sample was run in triplicate.
Isolate Rand was cultured aerobically at 50° C. for 24 h in the absence of organic solvents. The culture medium was then centrifuged at 12,000×g and 4° C. for 10 min. The supernatant was filtered with a cellulose acetate membrane filter (pore size 0.22 μm). One mL organic solvent was added to 3.0 mL of the cell-free supernatant and the whole mixture was incubated in shaker 150 rpm at 55° C. for 30 min. The samples were removed and immediately vortex prior to assay at zero time and after incubation period. For control the solvent was replaced by distilled water.

[5] = tested on: Bacillus sp. TKU004 protease; conditions: zinc ions; cited from earlier work
[6] = tested on: protease activity of B. megaterium; conditions: presence of Zn2+; cited from earlier work
[7] = cited from earlier work
Rand protease [8] = assay: Effect of organic solvents on purified Rand protease activity; type: biochemical, Bacillus subtilis isolate Rand; conditions: 25% (v/v) solvent, 37° C., 150 rpm, 30 min, no solvent = 100%
Experimental: . Three ml of purified Rand protease were incubated with 1 ml of different organic solvents at 37° C. with shaking at 150 rpm for 30 min. The activity of the enzyme without any solvent (none) was taken as 100%.
The effects of organic solvents with various log P on protease activity were determined. […] . The control was done in the absent of organic solvent and assay under the same experimental conditions. The protease was incubated in the presence of 25% (v/v) of organic solvents for 30 min. The incubation was performed at 37° C. in water bath shaker with 150 rpm. The samples were removed and immediately vortex prior to assay the protease activity.

## [Ca+2] [Ca^2+]
[1]; Ca2+ ions
  influence on proteolytic activity: did not show any influence
Rand protease [2]
  protease activity in the presence of metal ion: around 89%

## [Co+2] [Co^2+]
Rand protease [2]
  protease activity in the presence of metal ion: inhibitory effects

## O[C@@H](CS)[C@@H](O)CS (racemic) [DTT, 1,4-Dithio-DL-threitol]
Rand protease [3]
  reduction (inhibition) of protease activity: 30%

## CC(C)C[C@H](NC(=O)[C@@H](O)[C@H](N)Cc1ccccc1)C(=O)O [Bestatin, bestatin]
Rand protease [3]
  protease activity retained: about 95%

## Cc1ccccc1 [toluene]
Rand protease [4]
  remaining activity of Rand protease in the presence of organic solvent: 130%
Rand protease [4]; listed as toluen
  remaining activity of Rand protease in the presence of organic solvent: enhanced

## [Zn+2] [Zn^2+]
[1]; 2 mM Zn2+
  relative activity: 109%
[5]
  activity of the apo-enzyme restored, of the original level: 75%
[6]
  relative activities: 28%

## CCCCCCCCCCCC [n-dodecane]
[7]
  log P: 6.0

## [Cu+2] [Cu^2+]
Rand protease [2]
  protease activity in the presence of metal ion: inhibitory effects

## CCCCCCCCCCCCCC [n-tetradecane]
[7]
  log P: 7.6

## [K+] [K^+]
Rand protease [2]
  protease activity in the presence of metal ion: ~112%

## c1ccncc1 [pyridine]
Rand protease [4]
  remaining activity of Rand protease in the presence of organic solvent: no activity was observed

## [Fe+2] [Fe^2+]
Rand protease [2]
  protease activity in the presence of metal ion: inhibitory effects

## ClC(Cl)Cl [chloroform]
Rand protease [8]
  relative activity remaining in organic solvent: 18%

## CC(C)CC(=O)N[C@H](C(=O)N[C@H](C(=O)N[C@@H](CC(C)C)[C@@H](O)CC(=O)N[C@@H](C)C(=O)N[C@@H](CC(C)C)[C@@H](O)CC(=O)O)C(C)C)C(C)C [Pepstatin A, pepstatin A] (Isovaleryl-VV[Sta]A[Sta]-OH)
Rand protease [3]
  protease activity retained: ~63%

## [Mg+2] [Mg^2+]
Rand protease [2]
  protease activity in the presence of metal ion: inhibitory effects

## [Ni+2] [Ni^2+]
Rand protease [2]
  protease activity in the presence of metal ion: inhibitory effects

## OCCS [2-mercaptoethanol, 2-Mercaptoethanol]
Rand protease [3]
  reduction (inhibition) of protease activity: About 90%

## O=S(=O)(F)Cc1ccccc1 [PMSF, phenylmethanesulfonyl fluoride]
Rand protease [3]
  reduction (inhibition) of protease activity: completely inhibited
